In US11719711B2, “Compositions and methods for detecting and/or treating inflammation” (THE GENERAL HOSPITAL CORPORATION, priority 2013, dated 2023):

Tests used:
[1] = biological target: T1, P2Y14 (Mus musculus, UniProt Q9ESG6); conditions: EGFP(+) cell membranes, saturating concentration 10^−5 M unlabeled ligand
T1 sequence (Q9ESG6 1-338): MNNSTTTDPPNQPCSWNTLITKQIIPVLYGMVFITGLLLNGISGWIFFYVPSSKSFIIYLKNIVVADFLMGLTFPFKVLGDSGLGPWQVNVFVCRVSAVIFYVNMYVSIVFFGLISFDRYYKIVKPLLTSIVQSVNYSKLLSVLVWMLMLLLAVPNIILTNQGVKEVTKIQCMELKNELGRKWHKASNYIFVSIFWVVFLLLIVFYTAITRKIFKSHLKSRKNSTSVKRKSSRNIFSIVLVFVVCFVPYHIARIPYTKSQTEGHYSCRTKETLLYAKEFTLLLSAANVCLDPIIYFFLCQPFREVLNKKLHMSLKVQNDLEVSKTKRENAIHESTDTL
Protocol: Mice were anesthetized using pentobarbital sodium (50 mg/kg body, ip, Nembutal, Abbott Laboratories, Abbott Park, Ill.). The blood was flushed out of the organs by perfusing the animals with a phosphate-buffered saline (PBS) through the cardiac left ventricle at a constant flow rate of 17 ml/min. Kidneys were excised and sliced, and some kidneys were microdissected to separate the cortex from the medulla. Tissues were then minced immediately with scissors in RPMI 1640 medium (Invitrogen, Grand Island, N.Y.) containing 1.0 mg/ml collagenase type I (Invitrogen), 1.0 mg/ml collagenase type II (Sigma Aldrich) and 2 mg/ml hyaluronidase (Sigma Aldrich), and digested for 45 min at 37° C. A 40-μm-nylon mesh was used to remove undigested material following tissue digestion. Cells were then washed once with RPMI 1640 medium and once with a calcium-free PBS. EGFP-positive (EGFP(+)) and negative (EGFP(−)) cells were isolated immediately by FACS, based on their green fluorescence intensity, as described previously (36). […]
Confluent MDCK-C11 cells were scrapped in ice-cold PBS, pelleted by centrifugation (500 g, 10 min) and then resuspended in 1 ml ice-cold Tris-acetate 0.2 M buffer (pH 7.5) containing protease inhibitors (Complete Mini, Roche, Indianapolis, Ind.) using a 25G needle. […] Protein concentration was determined using a nanodrop 2000 (Thermo scientific). […]

[2] = biological target: T2, P2Y14 (Canis lupus familiaris, UniProt A0A8I3S656); experiment: [3H]UDP-glucose dose-displacement binding to MDCK-C11 membranes; parameters: endogenous in cells; host or cells: MDCK-C11 cells (Madin-Darby Canine Kidney subclone C11), not transfected; species or system Canine; conditions: MDCK-C11 membranes 15 μg, [3H]UDP-glucose 3 nM, 3 hours 22° C., increasing concentrations (ATP up to 10 μM)
T2 sequence (A0A8I3S656 1-340): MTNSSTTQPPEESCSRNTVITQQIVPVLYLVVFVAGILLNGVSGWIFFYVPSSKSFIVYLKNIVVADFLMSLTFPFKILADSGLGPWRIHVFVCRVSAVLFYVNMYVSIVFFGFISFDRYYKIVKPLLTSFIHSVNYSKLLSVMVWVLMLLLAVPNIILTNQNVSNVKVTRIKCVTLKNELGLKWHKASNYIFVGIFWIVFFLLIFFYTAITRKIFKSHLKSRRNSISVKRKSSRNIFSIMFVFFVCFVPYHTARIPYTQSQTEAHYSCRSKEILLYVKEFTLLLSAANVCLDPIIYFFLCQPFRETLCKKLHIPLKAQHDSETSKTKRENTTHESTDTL
Protocol: Incubation was terminated by the addition of ice-cold 50 mM Tris/HCl pH 7.4, 1 mM EDTA, 5 mM MgCl2 and was followed immediately by filtration under vacuum through Gelman A/E glass filters (Pall life science, An Arbor, Mich.) pre-soaked in binding buffer. The filters were rinsed twice before the addition of 5 ml of scintillation fluid (OpticFluor, Groninge, The Netherlands). Receptor-bound radioactivity was measured using liquid scintillation analyzer Tricarb 2200 CA from Parckard. All assays were performed in triplicate. […] Incubations were stopped by the addition of ice-cold buffer and receptor-bound radioactivity was determined as described above. The equilibrium dissociation constant (Kd) and the capacity of binding in dose-displacement studies were calculated using a scatchard plot and are expressed as the mean±SD. Statistical analysis were performed using the unpaired Student t-test.

[3] = test system: pro-inflammatory chemokine mRNA expression in MDCK-C11 cells; experiment: Quantitative PCR of pro-inflammatory mediators in MDCK-C11 cells; format: cell-based, Canine
Protocol: Total RNA was isolated from cells using RNeasy micro kit (Qiagen, Valencia, Calif.) and from tissues using RNeasy Mini kit, as described previously (36). DNase I digestion was performed using RNase-Free DNase Set (Qiagen) according to the manufacturer's instructions. All reverse transcription (RT) and PCR reagents were from Applied Biosystems (Foster City, Calif.). Reverse-transcription was performed for 1 h at 42° C. in a final volume of 50 μl with 1× buffer II, 5 mM MgCl2, 1.0 mM each dNTP, 1 U/μl RNase inhibitor, 2.5 μM random hexamers, and 2.5 U/μl MuLV reverse transcriptase. PCR was performed on RT products. For end point PCRs, reaction mixtures consisted of a 20 μl final volume containing 2 μl template, 1.25 units AmpliTaq Gold DNA polymerase, lx buffer II, 1.5 mM MgCl2, 1.0 mM each dNTP, and 0.5 μM forward and reverse oligonucleotide primers. The following parameters were used for PCR: 8 min at 95° C. to activate the polymerase, 35 cycles of melting for 30 s at 95° C., annealing for 30 s at 60° C., extension for 30 s at 72° C., and a final extension for 10 min at 72° C. The amplification products were visualized by electrophoresis on a 1-2% agarose gel containing GelStar stain (Lonza, Rockland, Me.).
Real Time PCR was performed with a 7300 Real Time PCR system (Applied Biosystems). Amplification products were detected using the Power SYBR Green PCR master mix (Applied Biosystems), according to the manufacturer's instructions. Standard-curve relative quantifications were performed and relative values of each sample were normalized to GAPDH values. Samples were analyzed in triplicates for each experiment.
MDCK-C11 cells were cultured at 37° C. in a 5% CO2-95% O2 mix in DMEM (Invitrogen) supplemented with 2 mM glutamine, 10% fetal bovine serum (Invitrogen), penicillin (100 U/ml), and streptomycin (100 μg/ml) (Invitrogen). Prior to any treatment, cells were serum starved for 24 hours. For cell surface biotinylation assays, cells were either grown to confluence on plastic dishes or on filters. Biotinylation was performed as described previously (75). Briefly cells were incubated with 1 mg/ml of biotin (Thermo Scientific, Pittsburgh, Pa.) in PBS pH 8 on ice for 1 h. The excess biotin was quenched with 100 mM glycine and cells were either further processed for immunostaining or lysed in lysis buffer [150 mM NaCl, 5 mM EDTA, 50 mM Tris/HEPES, pH 7.5; 1% (vol/vol) Triton X-100] containing protease and phosphatase inhibitors (Complete Mini EDTA free, PhosSTOP, Roche Diagnostics, Laval, Canada), for 20 min at 4° C. Total protein expression was determined in 2-5 μg of proteins from the total cell extracts. 50-100 μg of cell lysate proteins were incubated with neutravidin beads (Thermo Scientific) overnight at 4° C. […]

[4] = biological target: T2, P2Y14; conditions: MDCK-C11 cells, PPTN 10 μM pre-treatment 30 minutes, 100 μM UDP-glucose
[5] = biological target: T1, P2Y14; experiment: ERK1/2 phosphorylation in FACS isolated EGFP(+) intercalated cells (immunoblot); format: cell-based; parameters: using total membranes separated from FACS isolated EGFP(+) cells and EGFP(−) cells; endogenous in cells; host or cells: EGFP(+) intercalated cells freshly isolated by FACS from kidneys of B1-EGFP transgenic mice; conditions: with PPTN
Protocol: Mice were anesthetized using pentobarbital sodium (50 mg/kg body, ip, Nembutal, Abbott Laboratories, Abbott Park, Ill.). The blood was flushed out of the organs by perfusing the animals with a phosphate-buffered saline (PBS) through the cardiac left ventricle at a constant flow rate of 17 ml/min. Kidneys were excised and sliced, and some kidneys were microdissected to separate the cortex from the medulla. Tissues were then minced immediately with scissors in RPMI 1640 medium (Invitrogen, Grand Island, N.Y.) containing 1.0 mg/ml collagenase type I (Invitrogen), 1.0 mg/ml collagenase type II (Sigma Aldrich) and 2 mg/ml hyaluronidase (Sigma Aldrich), and digested for 45 min at 37° C. A 40-μm-nylon mesh was used to remove undigested material following tissue digestion. Cells were then washed once with RPMI 1640 medium and once with a calcium-free PBS. EGFP-positive (EGFP(+)) and negative (EGFP(−)) cells were isolated immediately by FACS, based on their green fluorescence intensity, as described previously (36). Cell isolation was performed at the MGH flow cytometry core facility using a modified FACS Vantage cell sorter (BD Biosciences, San Jose, Calif.). FACS isolated samples were collected in PBS and used without delay for subsequent treatment and/or cell fractionation, protein and RNA isolation, or imaging. […]

[6] = PD98059 50 μM pretreatment 30 minutes

## Nc1ncnc2c1ncn2[C@@H]1O[C@H](COP(=O)(O)OP(=O)(O)OP(=O)(O)O)[C@@H](O)[C@H]1O [ATP]
[1]
  displacement of [3H]UDP-glucose binding: not with ATP
[2]
  inhibition of [3H]UDP-glucose binding by unlabeled ligand: no significant inhibitory effect

## COc1cccc(-c2cc(=O)c3ccccc3o2)c1N [PD98059]
[3]; [6]
  UDP-glucose induced up regulation of CCL-2 mRNA: abolished
  UDP-glucose induced up regulation of IL-8 mRNA: abolished

## O=C(O)c1cc(-c2ccc(C3CCNCC3)cc2)c2ccc(-c3ccc(C(F)(F)F)cc3)cc2c1 [PPTN, 4-[4-(piperidin-4-yl)phenyl]-7-[4-(trifluoromethyl)phenyl]-2-naphthoic acid]
[3]; PPTN pretreatment 30 minutes
  increase in CCl2 mRNA expression induced by UDP-glucose: abolished
  increase in IL8 mRNA expression induced by UDP-glucose: abolished
[4]
  UDP-glucose induced increase in ERK1/2 phosphorylation: abolished
[5]
  UDP-glucose dependent ERK phosphorylation in ICs isolated by FACS (FIG. 14): inhibits
